Assay [1] deals with T1, 5HT6-human recombinant receptor (Homo sapiens, UniProt P50406). The assay is described as follows: Binding to serotonin receptor 5HT6 ([3H]-LSD radioligand displacement). The arrangement: purchased Receptor Biology; host or cells: HEK-293 cells (membranes). The conditions noted are these: membranes of HEK-293 cells expressing 5HT6-human recombinant receptor; [3H]-LSD 2.7 nM; 60 min, 37° C. Here is the method: Binding to Serotonin Receptor 5HT6
Cell membranes of HEK-293 cells expressing the 5HT6-human recombinant receptor were supplied by Receptor Biology. In said membranes the receptor concentration is 2.18 pmol/mg protein and the protein concentration is 9.17 mg/ml. The experimental protocol follows the method of B. L. Roth et al. [B. L. Roth et al., The Journal of Pharmacology and Experimental Therapeutics, 1994, 268. 1403] with the following slight changes. The respective part of the literature description is hereby incorporated by reference and forms part of the disclosure.
The commercial membrane is diluted (1:40 dilution) with the binding buffer: 50 mM Tris-HCl, 10 mM MgCl2, 0.5 mM EDTA (pH 7.4). The radioligand used is [^3H]-LSD at a concentration of 2.7 nM with a final volume of 200 μl. incubation is initiated by adding 100 μl of membrane suspension, (≈22.9 μg membrane protein), and is prolonged for 60 minutes at a temperature of 37° C. The incubation is ended by fast filtration in a Brandel Cell Harvester through fiber glass filters made by Schleicher & Schuell GF 3362 pretreated with a solution of polyethylenimine at 0.5%. The filters are washed three times with three milliliters of buffer Tris-HCl 50 mM pH 7.4. The filters are transferred to flasks and 5 ml of Ecoscint H liquid scintillation cocktail are added to each flask. The flasks are allowed to reach equilibrium for several hours before counting with a Wallac Winspectral 1414 scintillation counter. Non-specific binding is determined in the presence of 100 μM of serotonin. Tests were made in triplicate. The inhibition constants (Ki, nM) were calculated by non-linear regression analysis using the program EBDA/LIGAND described in Munson and Rodbard, Analytical Biochemistry, 1980, 107, 220, which is hereby incorporated by reference and forms part of the disclosure.

For assay [2], the target named is T1, 5HT6-human recombinant receptor. The conditions noted are these: in words; Fisas, A. et al., Brit. J. Pharm. 2006; cited from earlier work.
For assay [3] the following is noted: in words; Fisas, A. et al., Brit. J. Pharm. 2006; cited from earlier work.

Where a name gives a salt, the structure may show the parent alone.

T1 sequence (P50406 whole entry): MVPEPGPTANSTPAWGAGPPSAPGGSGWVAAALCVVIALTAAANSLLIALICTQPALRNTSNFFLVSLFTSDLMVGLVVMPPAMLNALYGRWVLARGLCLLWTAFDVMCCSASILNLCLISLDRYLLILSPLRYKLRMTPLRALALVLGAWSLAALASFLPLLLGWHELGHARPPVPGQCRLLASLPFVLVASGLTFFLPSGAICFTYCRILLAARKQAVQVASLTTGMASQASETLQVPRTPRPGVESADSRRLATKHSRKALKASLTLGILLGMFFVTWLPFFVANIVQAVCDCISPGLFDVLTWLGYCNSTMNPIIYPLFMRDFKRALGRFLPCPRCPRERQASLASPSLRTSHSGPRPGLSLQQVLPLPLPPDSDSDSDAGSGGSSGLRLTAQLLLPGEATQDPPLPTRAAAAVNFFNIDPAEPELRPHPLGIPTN

In the case of `O=S(=O)(Nc1ccc2c(c1)CCNC2)c1c(Cl)nc2n1CCS2` [Compound 1, 6-Chloro-2,3-dihydro-imidazo[2,1-b] thiazole-5-sulfonic acid (1,2,3,4-tetrahydro-isoquinolin-6-yl)-amide hydrochloride], the inhibitory constant (Ki) in assay [1] amounted to 8.4 nM.
On the same count and under the same terms, as for `CN(C)CCc1c[nH]c2ccc(NS(=O)(=O)c3c(Cl)nc4n3CCS4)cc12` [Compound 3, 6-Chloro-2,3-dihydro-imidazo[2,1-b] thiazole-5-sulfonic acid [3-(2-dimethylamino-ethyl)-1H-indol-5-yl]-amide hydrochloride], the figure is 16.9 nM; as for `CC(=O)N1CCc2cc(NS(=O)(=O)c3c(Cl)nc4n3CCS4)ccc21` [Compound 4, 6-Chloro-2,3-dihydro-imidazo[2,1-b] thiazole-5-sulfonic acid (1-acetyl-2,3-dihydro-1H-indol-5-yl)-amide], 5.4 nM; as for `O=C1CCc2ccc(NS(=O)(=O)c3c(Cl)nc4n3CCS4)cc21` [Compound 10, 6-Chloro-2,3-dihydro-imidazo[2,1-b] thiazole-5-sulfonic acid (3-oxo-indan-5-yl)-amide], 46 nM.
Regarding `CN(C)CCc1c[nH]c2ccc(NS(=O)(=O)c3ccc4c(Cl)cccc4c3)cc12` [Compound E-6837, 5-chloro-N[3-(2-(dimethylamino)ethyl)-1H-indol-5-yl] naphthalene-2-sulphonamide], the “binding for the recombinant human 5-HT6 receptor” value in assay [2] is “selective and high affinity binding”. Moreover, in assay [3], the body weight result is reported as “significant body weight loss” and the food intake result is listed as “reduction in the food intake”.
